Reference: US20100105651A1, “ANTAGONISTS OF SNS SODIUM CHANNELS” (priority 2005, published 2010)
Counter-ions that a name gives are not always drawn.

target: T1, human NaV1.8 (hNaV1.8) ion channel (Homo sapiens, UniProt Q9Y5Y9); experiment: Inhibition of Human NaV1.8 stably expressed in SH-SY-5Y cells (membrane potential dye fluorescence assay); format: cell-based; settings: SH-SY-5Y cells stably expressing hNaV1.8; FLIPR membrane potential dye; 10 μM pyrethroid, 250 nM TTX; test range 100 μM-0.05 μM; read-out: hNav1.8 IC50
T1 construct: expressed in transfected cells
T1 sequence (Q9Y5Y9 whole entry): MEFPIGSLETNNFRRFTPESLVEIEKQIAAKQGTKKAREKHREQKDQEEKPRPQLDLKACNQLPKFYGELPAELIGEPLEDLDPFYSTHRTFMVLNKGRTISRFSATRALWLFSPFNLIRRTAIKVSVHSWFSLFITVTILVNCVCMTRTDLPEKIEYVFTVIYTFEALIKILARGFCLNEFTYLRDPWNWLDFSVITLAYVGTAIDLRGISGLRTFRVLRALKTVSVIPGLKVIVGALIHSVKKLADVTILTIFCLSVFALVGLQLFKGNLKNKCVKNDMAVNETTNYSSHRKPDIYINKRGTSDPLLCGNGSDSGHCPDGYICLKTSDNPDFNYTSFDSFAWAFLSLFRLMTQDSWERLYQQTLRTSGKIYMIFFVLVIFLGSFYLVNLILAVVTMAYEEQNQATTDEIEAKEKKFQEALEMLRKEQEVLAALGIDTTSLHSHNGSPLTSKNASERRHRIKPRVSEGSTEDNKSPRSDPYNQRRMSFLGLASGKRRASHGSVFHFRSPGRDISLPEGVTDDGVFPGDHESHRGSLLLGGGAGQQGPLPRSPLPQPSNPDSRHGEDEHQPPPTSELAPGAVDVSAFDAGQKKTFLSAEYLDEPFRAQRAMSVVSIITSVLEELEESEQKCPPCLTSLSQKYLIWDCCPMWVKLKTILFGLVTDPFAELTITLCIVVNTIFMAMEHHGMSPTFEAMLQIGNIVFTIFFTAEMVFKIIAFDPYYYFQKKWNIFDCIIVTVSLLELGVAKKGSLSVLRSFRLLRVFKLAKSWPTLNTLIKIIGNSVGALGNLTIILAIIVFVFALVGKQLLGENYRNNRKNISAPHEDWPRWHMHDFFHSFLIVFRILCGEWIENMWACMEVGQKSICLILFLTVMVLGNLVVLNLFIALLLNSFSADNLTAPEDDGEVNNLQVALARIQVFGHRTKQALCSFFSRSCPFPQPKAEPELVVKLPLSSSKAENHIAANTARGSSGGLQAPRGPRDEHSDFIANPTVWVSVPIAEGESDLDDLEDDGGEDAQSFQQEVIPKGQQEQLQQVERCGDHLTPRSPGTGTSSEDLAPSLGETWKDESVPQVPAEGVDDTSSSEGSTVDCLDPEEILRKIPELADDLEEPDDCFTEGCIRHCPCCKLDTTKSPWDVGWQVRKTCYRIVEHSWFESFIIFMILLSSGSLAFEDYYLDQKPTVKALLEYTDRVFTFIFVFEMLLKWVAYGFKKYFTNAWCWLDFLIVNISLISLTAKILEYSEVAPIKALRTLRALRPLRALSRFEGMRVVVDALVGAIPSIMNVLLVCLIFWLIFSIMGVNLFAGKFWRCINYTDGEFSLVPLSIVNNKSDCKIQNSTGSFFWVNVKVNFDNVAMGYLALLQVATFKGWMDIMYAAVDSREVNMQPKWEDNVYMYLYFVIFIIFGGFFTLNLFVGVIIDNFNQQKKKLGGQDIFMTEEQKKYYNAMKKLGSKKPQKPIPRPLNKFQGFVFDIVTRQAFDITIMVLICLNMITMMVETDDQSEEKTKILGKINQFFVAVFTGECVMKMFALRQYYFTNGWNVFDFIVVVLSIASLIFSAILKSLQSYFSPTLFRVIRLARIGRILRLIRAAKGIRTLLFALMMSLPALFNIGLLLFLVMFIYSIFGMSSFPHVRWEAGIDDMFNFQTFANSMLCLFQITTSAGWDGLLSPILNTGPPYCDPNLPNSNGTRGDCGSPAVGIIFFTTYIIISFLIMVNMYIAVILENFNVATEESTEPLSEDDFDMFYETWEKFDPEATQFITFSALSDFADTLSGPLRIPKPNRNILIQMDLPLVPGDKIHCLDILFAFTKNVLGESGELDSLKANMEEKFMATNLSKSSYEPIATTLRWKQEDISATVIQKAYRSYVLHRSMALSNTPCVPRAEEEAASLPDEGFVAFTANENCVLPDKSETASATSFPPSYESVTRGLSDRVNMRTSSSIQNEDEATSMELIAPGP
Protocol: Inhibition of Human NaV1.8 stably expressed in SH-SY-5Y cells
A SH-SY-5Y neuroblastoma cell line stably expressing the human NaV1.8 (hNaV1.8) ion channel was constructed. This cell line has been used to develop a medium to high throughput assay for determining the ability of test compounds to inhibit membrane depolarisation mediated via the hNaV1.8 channel.
SH-SY-5Y hNaV1.8 are grown in adherent monolayer culture using 50:50 Ham's F-12/EMEM tissue culture medium supplemented with 15% (v/v) foetal bovine serum; 2 mM L-glutamine, 1% NEAA and 600 μg·ml^−1 Geneticin sulphate. Cells are removed from the tissue culture flask using trypsin/EDTA and re-plated into black walled, clear bottom 96-well assay plates at 50,000 cells·well^−1 24 hours prior to assay.
On the day of assay the cell assay plates are washed to remove cell culture medium using a sodium free assay buffer (145 mM tetramethyl ammonium chloride; 2 mM calcium chloride; 0.8 mM magnesium chloride hexahydrate; 10 mM HEPES; 10 mM glucose; 5 mM potassium chloride, pH 7.4). Fluorescent membrane potential dye solution (FLIPR™ membrane potential dye, Molecular Devices Corporation), containing 10 μM of a pyrethroid to prevent channel inactivation and 250 nM tetrodotoxin (TTX) to reduce interference from TTX-sensitive sodium channels present in the cell line. Test compound, initially dissolved in dimethyl sulfoxide but further diluted in sodium free buffer, is added to achieve the final test concentration range of 100 μM-0.05 μM.
Cell plates are incubated for 30 minutes at room temperature to allow equilibration of dye and test compound. Plates are then transferred to a fluorescence plate reader for fluorescence measurement using an excitation wavelength of 530 nm whilst measuring fluorescence emission at 565 nm. […] Membrane depolarisation is registered by an increase in fluorescence emission at 565 nm.
The change in fluorescence seen in each test well upon the addition of sodium containing buffer is calculated relative to the baseline fluorescence for that well. This figure is then used for calculating the IC50 for each test compound.

SMILES	IC50 [nM]
O=C(Nc1ccc(C(F)(F)F)cc1)N1CC(NC2CCc3cc(F)ccc3C2)C1 (centres unmarked) [Example 35, 3-(6-Fluoro-1,2,3,4-tetrahydro-naphthalen-2-ylamino)-azetidine-1-carboxylic acid (4-trifluoromethyl-phenyl)-amide]	1310
CC(NC1CN(C(=O)Nc2cccc(Oc3ccccc3)c2)C1)c1ccc(F)cc1 (centres unmarked) [Example 103, 3-[1-(4-Fluoro-phenyl)-ethylamino]-azetidine-1-carboxylic acid (3-phenoxy-phenyl)-amide]	730
O=C(Nc1ccc(Oc2ccc(F)cc2)cc1)N1CC(NC2CCCc3ccccc32)C1 (centres unmarked) [Example 19, 3-(1,2,3,4-Tetrahydro-naphthalen-1-ylamino)-azetidine-1-carboxylic acid [4-(4-fluoro-phenoxy)-phenyl]-amide]	190
CC(NC1CN(C(=O)Nc2ccc(Oc3ccccc3)cc2)C1)c1ccc(F)cc1Cl (centres unmarked) [Example 57, 3-[1-(2-Chloro-4-fluoro-phenyl)-ethylamino]-azetidine-1-carboxylic acid (4-phenoxy-phenyl)-amide]	1220
CC(c1ccc(F)cc1Cl)N(C)C1CN(C(=O)Nc2ccc(Oc3ccccc3)cc2)C1 (centres unmarked) [Example 60, 3-{[1-(2-Chloro-4-fluoro-phenyl)-ethyl]-methyl-amino}-azetidine-1-carboxylic acid (4-phenoxy-phenyl)-amide]	570
CN(C1CN(C(=O)Nc2ccc(Oc3ccc(F)cc3)cc2)C1)C1CCc2cc(F)ccc21 (centres unmarked) [Example 37, 3-[(5-Fluoro-indan-1-yl)-methyl-amino]-azetidine-1-carboxylic acid [4-(4-fluoro-phenoxy)-phenyl]-amide]	420
CC(c1ccccc1Cl)N(C)C1CN(C(=O)Nc2cccc(C(F)(F)F)c2)C1 (centres unmarked) [Example 97, 3-{[1-(2-Chloro-phenyl)-ethyl]-methyl-amino}-azetidine-1-carboxylic acid (3-trifluoromethyl-phenyl)-amide]	3640
COc1ccc(C(C)NC2CN(C(=O)Nc3ccc(C(F)(F)F)cc3)C2)cc1 (centres unmarked) [Example 115, 3-[1-(4-Methoxy-phenyl)-ethylamino]-azetidine-1-carboxylic acid (4-trifluoromethyl-phenyl)-amide]	2430
Cc1ccc(C(C)NC2CN(C(=O)Nc3ccc(C(F)(F)F)cc3)C2)cc1 (centres unmarked) [Example 122, 3-(1-p-Tolyl-ethylamino)-azetidine-1-carboxylic acid (4-trifluoromethyl-phenyl)-amide]	1700
Cc1ccccc1C(C)N(C)C1CN(C(=O)Nc2cccc(Oc3ccccc3)c2)C1 (centres unmarked) [Example 107, 3-[Methyl-(1-o-tolyl-ethyl)-amino]-azetidine-1-carboxylic acid (3-phenoxy-phenyl)-amide]	510
CN(C1CN(C(=O)Nc2cccc(Oc3ccccc3)c2)C1)C1CCc2cc(F)ccc21 (centres unmarked) [Example 29, 3-[(5-Fluoro-indan-1-yl)-methyl-amino]-azetidine-1-carboxylic acid (3-phenoxy-phenyl)-amide]	420
O=C(Nc1ccc(Oc2ccc(F)cc2)cc1)N1CC(NC2CCc3cc(F)ccc32)C1 (centres unmarked) [Example 136, 3-(5-Fluoro-indan-1-ylamino)-azetidine-1-carboxylic acid [4-(4-fluoro-phenoxy)-phenyl]-amide methanesulfonate salt]	210
CC(c1ccc(F)cc1)N(C)C1CN(C(=O)Nc2cc(C(F)(F)F)ccc2F)C1 (centres unmarked) [Example 81, 3-{[1-(4-Fluoro-phenyl)-ethyl]-methyl-amino}-azetidine-1-carboxylic acid (2-fluoro-5-trifluoromethyl-phenyl)-amide]	8370
CCCCOc1ccc(NC(=O)N2CC(NC3CCc4cc(F)ccc43)C2)cc1 (centres unmarked) [Example 6, 3-(5-Fluoro-indan-1-ylamino)-azetidine-1-carboxylic acid (4-butoxy-phenyl)-amide]	1200
COc1ccc2c(c1)CCC2NC1CN(C(=O)Nc2ccc(Oc3ccc(F)cc3)cc2)C1 (centres unmarked) [Example 21, 3-(5-Methoxy-indan-1-ylamino)-azetidine-1-carboxylic acid [4-(4-fluoro-phenoxy)-phenyl]-amide]	310
CC(c1ccccc1Cl)N(C)C1CN(C(=O)Nc2ccc(Oc3ccccc3)cc2)C1 (centres unmarked) [Example 67, 3-{[1-(2-Chloro-phenyl)-ethyl]-methyl-amino}-azetidine-1-carboxylic acid (4-phenoxy-phenyl)-amide]	550

SMILES	IC50 [nM]
CC(NC1CN(C(=O)Nc2cccc(C(F)(F)F)c2)C1)c1ccc(F)cc1 (centres unmarked) [Example 73, 3-[1-(4-Fluoro-phenyl)-ethylamino]-azetidine-1-carboxylic acid (3-trifluoromethyl-phenyl)-amide]	2560
Cc1ccc(C(C)NC2CN(C(=O)Nc3ccc(Oc4ccccc4)cc3)C2)c(C)c1 (centres unmarked) [Example 101, 3-[1-(2,4-Dimethyl-phenyl)-ethylamino]-azetidine-1-carboxylic acid (4-phenoxy-phenyl)-amide]	290
O=C(c1ccccc1)c1ccc(NC(=O)N2CC(NC3CCc4cc(F)ccc43)C2)cc1 (centres unmarked) [Example 31, 3-(5-Fluoro-indan-1-ylamino)-azetidine-1-carboxylic acid (4-benzoyl-phenyl)-amide]	7250
CCCCOc1ccc(NC(=O)N2CC(N3CCc4cccc(OC)c4C3)C2)cc1 [Example 76, 3-(8-Methoxy-3,4-dihydro-1H-isoquinolin-2-yl)-azetidine-1-carboxylic acid (4-butoxy-phenyl)-amide]	1410
CCCCOc1ccc(NC(=O)N2CC(NC(C)c3ccccc3C)C2)cc1 (centres unmarked) [Example 65, 3-(1-o-Tolyl-ethylamino)-azetidine-1-carboxylic acid (4-butoxy-phenyl)-amide]	1420
CC(c1ccccc1C(F)(F)F)N(C)C1CN(C(=O)Nc2ccc(Oc3ccccc3)cc2)C1 (centres unmarked) [Example 93, 3-{Methyl-[1-(2-trifluoromethyl-phenyl)-ethyl]-amino}-azetidine-1-carboxylic acid (4-phenoxy-phenyl)-amide]	1800
Cc1cc(F)ccc1C(C)NC1CN(C(=O)Nc2cccc(Oc3ccccc3)c2)C1 (centres unmarked) [Example 112, 3-[1-(4-Fluoro-2-methyl-phenyl)-ethylamino]-azetidine-1-carboxylic acid (3-phenoxy-phenyl)-amide]	660
CC(NC1CN(C(=O)Nc2ccc(Oc3ccc(F)cc3)cc2)C1)c1ccc(C#N)cc1 (centres unmarked) [Example 127, 3-[1-(4-Cyano-phenyl)-ethylamino]-azetidine-1-carboxylic acid [4-(4-fluoro-phenoxy)-phenyl]-amide]	2110
Cc1cc(F)ccc1C(C)NC1CN(C(=O)Nc2ccc(Oc3ccccc3)cc2)C1 (centres unmarked) [Example 111, 3-[1-(4-Fluoro-2-methyl-phenyl)-ethylamino]-azetidine-1-carboxylic acid (4-phenoxy-phenyl)-amide]	630
CC(NC1CN(C(=O)Nc2ccc(C(F)(F)F)cc2)C1)c1ccc(C#N)cc1 (centres unmarked) [Example 126, 3-[1-(4-Cyano-phenyl)-ethylamino]-azetidine-1-carboxylic acid (4-trifluoromethyl-phenyl)-amide]	23700
CC(c1ccc(F)cc1)N(C)C1CN(C(=O)Nc2ccc(OC(F)(F)F)cc2)C1 (centres unmarked) [Example 98, 3-{[1-(4-Fluoro-phenyl)-ethyl]-methyl-amino}-azetidine-1-carboxylic acid (4-trifluoromethoxy-phenyl)-amide]	3190
CC(NC1CN(C(=O)NC(c2ccc(F)cc2)c2ccc(F)cc2)C1)c1ccc(F)cc1 (centres unmarked) [Example 2, 3-[1-(4-Fluoro-phenyl)-ethylamino]-azetidine-1-carboxylic acid [bis-(4-fluoro-phenyl)-methyl]-amide]	2620
CC(c1ccc(OC(F)(F)F)cc1)N(C)C1CN(C(=O)Nc2ccc(Oc3ccccc3)cc2)C1 (centres unmarked) [Example 80, 3-{Methyl-[1-(4-trifluoromethoxy-phenyl)-ethyl]-amino}-azetidine-1-carboxylic acid (4-phenoxy-phenyl)-amide]	1220
O=C(Nc1ccc(Oc2ccc(F)cc2)cc1)N1CC(NC2CCc3cc(Cl)ccc32)C1 (centres unmarked) [Example 138, 3-(5-Chloro-indan-1-ylamino)-azetidine-1-carboxylic acid [4-(4-fluoro-phenoxy)-phenyl]-amide methanesulfonate salt]	430
COC(=O)C(NC1CN(C(=O)Nc2ccc(Oc3ccccc3)cc2)C1)c1ccccc1 (centres unmarked) [Example 53, [1-(4-Phenoxy-phenylcarbamoyl)-azetidin-3-ylamino]-phenyl-acetic acid methyl ester]	2230
CC(NC(=O)N1CC(NC2CCc3ccccc3C2)C1)c1ccc(C(F)(F)F)cc1 (centres unmarked) [Example 4, 3-(1,2,3,4-Tetrahydro-naphthalen-2-ylamino)-azetidine-1-carboxylic acid [1-(4-trifluoromethyl-phenyl)-ethyl]-amide]	3320
